The values that follow come from patent US8071810B2, “C5a receptor antagonists” (Jerini AG, priority 2005, dated 2011).

The structures appear in SMILES notation.

In the first test the target is T1, human C5a receptor (CD88) (Homo sapiens, UniProt P21730).
T1 construct: expressed in transfected cells; host or cells: rat basophilic leukemia (RBL) cells, stably transfected
T1 sequence (P21730 1-350): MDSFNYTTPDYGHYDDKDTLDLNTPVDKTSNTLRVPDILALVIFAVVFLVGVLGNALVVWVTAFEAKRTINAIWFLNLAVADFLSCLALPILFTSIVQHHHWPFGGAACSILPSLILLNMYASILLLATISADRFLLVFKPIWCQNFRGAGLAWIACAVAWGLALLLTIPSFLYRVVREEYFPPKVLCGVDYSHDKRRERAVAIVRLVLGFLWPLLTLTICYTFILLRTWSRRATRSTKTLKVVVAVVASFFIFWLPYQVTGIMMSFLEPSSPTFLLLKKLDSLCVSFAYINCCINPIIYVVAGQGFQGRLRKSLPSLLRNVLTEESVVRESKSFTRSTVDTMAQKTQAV
As to the kind of experiment: C5a induced enzyme (glucosaminidase) release assay in RBL cells expressing the human C5a receptor (Example 28). The test is classed as cell-based. As to conditions: RBL cells with human C5aR; read-out: IC50 for the inhibition of C5a induced enzyme release. As to the method: Basophile leukemia cells from rats (RBL), which express the human C5a receptor (CD88), are cultivated in DMEM with 10% fetal calf serum, 100 U/ml penicillin, 100 μg/ml streptomycin and 2 mM glutamin (all constituents are from Biochrome, Berlin) at 37° C. and with 10% CO2 until a confluent layer is obtained. All following details refer to a tissue culture flask with 75 cm^2 surface. The used up medium is removed. The cells are washed with 10 ml PBS (Dulbecco's PBS, Biochrome) and then covered with 3 ml cell dissociation solution (CDS, Sigma). The cells are incubated for 1 minute at room temperature. Then the CDS is removed and the cells are incubated for further 10-15 minutes at 37° C. to detach the cells completely from the flask. 20 μl solution of the compound to be testet are used in the assay. […] The dilution series are prepared in ⅓ or ½ steps. […] The cells are counted and centrifuged (200 g, 10 min). The cell pellet is taken up with pre-heated HAG-CM, and the cell density is adjusted to 2×10^6 Zellen/ml. The cells are incubated for 5 minutes at 37° C. 2.7 μl of a cytochalasin B solution (1000 μg/ml in DMSO, Sigma) are added per ml cell suspension. The Zellen are incubated for another 3 min at 37° C. Then, 75 μl of the cell suspension are added to the 20 μl solution containing the compounds to be tested. […] The cells are again incubated for 10 minutes at 37° C. […] After this the plates are put on ice and centrifuged for 3 minutes at 1200×g and 4° C. […] The plate is incubated for 1 hour at 37° C. […] The IC50 value is determined by solving the four parameter equation y=((A−D)/(1+(x/C)^B))+D.
As for `CCc1c(N)cc(Cl)c(CC)c1NC(=O)N(c1ccc(C(C)C)cc1)[C@@H](C)c1ccc(C)cc1` [compound 73, (S)-3-(3-amino-5-chloro-2,6-diethyl-phenyl)-1-(4-isopropyl-phenyl)-1-(1-p-tolyl-ethyl)-urea], the half-maximal inhibitory concentration (IC50) was 32 nM.
Same read-out and setting: with `CCc1c(N)cc(Cl)c(CC)c1NC(=O)N(c1ccc(C(C)C)cc1)[C@@H](C)c1ccc(F)cc1` [(S)-3-(3-Amino-5-chlor-2,6-diethyl-phenyl)-1-[1-(4-fluor-phe] the figure was 38 nM; with `Cc1ccc(CN(Cc2ccccc2)C(=O)c2ccccc2-n2cccc2)cc1` [Compound 8, N-Benzyl-N-(4-methyl-benzyl)-2-pyrrol-1-yl-benzamide, reference compound], 1920 nM; with `CCc1ccc(N(Cc2ccc(Cl)cc2)C(=O)Nc2c(CC)c(N)cc(Cl)c2CC)cc1`, 86 nM.
The same measure, in the same setting: with `CCc1ccc(Cl)c(CC)c1NC(=O)N(Cc1ccc(OC)cc1)c1ccc(C(C)C)cc1` [compound 24, 3-(3-Chlor-2,6-diethyl-phenyl)-1-(4-isopropyl-phenyl)-1-(4-methoxy-benzyl)-urea] the figure was 1050 nM; with `CCc1c(N)cc(Cl)c(CC)c1NC(=O)N(c1ccc(OC)cc1F)[C@@H](C)c1ccc(Cl)cc1`, 31 nM.
With `CCc1c(N)cc(Cl)c(CC)c1NC(=O)N(c1ccc(NC)cc1)[C@@H](C)c1ccc(Cl)cc1`, the half-inhibitory concentration (IC50) came out at 3 nM.

The test is the same for the next values; noted with them: inhibition of C5a induced enzyme release, RBL cells with human C5aR; read-out: Activity-range (antagonistic activity, IC50 enzyme release).
Regarding `CCc1c(N)cc(Cl)c(CC)c1NC(=O)N(Cc1ccc(Cl)cc1)c1ccc(OC)c2ccccc12` [compound 115, 3-(3-amino-5-chloro-2,6-diethyl-phenyl)-1-(4-chloro-benzyl)-1-(4-methoxy-naphthaline-1-yl)-urea], the IC50 fell in the range of 60 to 200 nM.
As for `Cc1ccc([C@H](C)N(C(=O)Nc2c(C)c(N)cc(Cl)c2C)c2ccc(C(C)C)cc2)cc1` [compound 79, (S)-3-(3-amino-5-chloro-2,6-dimethyl-phenyl)-1-(4-isopropyl-phenyl)-1-(1-p-tolyl-ethyl)-urea], the IC50 is 200 to 5000 nM.
`CCc1c(N)cc(Cl)c(CC)c1NC(=O)N(Cc1ccc(Cl)cc1)c1ccc(OC)c(OC)c1` [compound 114, 3-(3-amino-5-chloro-2,6-diethyl-phenyl)-1-(4-chloro-benzyl)-1-(3,4-dimethoxy-phenyl)-urea]: the IC50 is 200 to 5000 nM.
For `CCc1c(N)cc(Cl)c(CC)c1NC(=O)N(c1ccc([S+](C)[O-])cc1)[C@@H](C)c1ccc(Cl)cc1` (stereo partly drawn) [compound 95, (S)-3-(3-amino-5-chloro-2,6-diethyl-phenyl)-1-[1-(4-chloro-phenyl)-ethyl]-1-(4-methanesulfinyl-phenyl)-urea], the IC50 was in the range of 200 to 5000 nM.
As to `CCc1c(N)cc(Cl)c(CC)c1NC(=O)N(Cc1ccc(Cl)cn1)c1ccc(C(C)C)cc1` [compound 105, 3-(3-amino-5-chloro-2,6-diethyl-phenyl)-1-(5-chloro-pyridin-2-ylmethyl)-1-(4-isopropyl-phenyl)-urea], the IC50 is 200 to 5000 nM.
Same read-out and setting: under `CCc1ccc(NCC(N)=O)c(CC)c1NC(=O)N(Cc1ccc(OC)cc1)c1ccc(C(C)C)cc1` [compound 29, 2-{2,4-diethyl-3-[3-(4-isopropyl-phenyl)-3-(4-methoxy-benzyl)-ureido]-phenylamino}-acetamide] stands 200 to 5000 nM; under `COc1ccc(CN(C(=O)Nc2c(C(C)C)ccc(NC(C)=O)c2C(C)C)c2ccc(C(C)C)cc2)cc1` [compound 27, N-{2,4-diisopropyl-3-[3-(4-isopropyl-phenyl)-3-(4-methoxy-benzyl)-ureido]-phenyl}-acetamide], above 5000 nM.
On to `CCc1ccc(N(C(=O)Nc2c(CC)c(N)cc(Cl)c2CC)C(C)c2ccc(C)nc2)cc1` (stereo not shown) [compound 123, 3-(3-amino-5-chloro-2,6-diethyl-phenyl)-1-(4-ethyl-phenyl)-1-[1-(6-methyl-pyridin-3-yl)-ethyl]-urea], for which the half-inhibitory concentration (IC50) is 60 to 200 nM.
Same read-out and setting: under `CCc1c(N)cc(Cl)c(CC)c1NC(=O)N(Cc1ccc(C(F)(F)F)nc1)c1ccc(C(C)C)cc1` [compound 87, 3-(3-amino-5-chloro-2,6-diethyl-phenyl)-1-(4-isopropyl-phenyl)-1-(6-trifluoromethyl-pyridin-3-ylmethyl)-urea] stands 200 to 5000 nM.
On the same count and under the same terms, under `CCc1c(N)cc(Cl)c(CC)c1NC(=O)N(Cc1ccc(Cl)cc1)c1ccc(C(C)C)cc1` [compound 72, 3-(3-amino-5-chloro-2,6-diethyl-phenyl)-1-(4-chlor-benzyl)-1-(4-isopropyl-phenyl)-urea] stands 60 to 200 nM.
Same read-out and setting: with `CCc1c(Cl)cc(NCC(N)=O)c(CC)c1NC(=O)N(Cc1ccc(OC)cc1)c1ccc(C(C)C)cc1` [compound 46, 2-{5-chloro-2,4-diethyl-3-[3-(4-isopropyl-phenyl)-3-(4-methoxy-benzyl)-ureido]-phenylamino}-acetamide] the figure was 200 to 5000 nM; with `CCNc1ccc(CC)c(NC(=O)N(Cc2ccc(OC)cc2)c2ccc(C(C)C)cc2)c1CC` [compound 142, 3-(2,6-diethyl-3-ethylamino-phenyl)-1-(4-isopropyl-phenyl)-1-(4-methoxy-benzyl)-urea], above 5000 nM.
For `CCc1c(N)cc(Cl)c(CC)c1NC(=O)N(Cc1ccc(C(F)(F)F)cc1)c1ccc(C(C)C)cc1` [compound 49, 3-(3-amino-5-chloro-2,6-diethyl-phenyl)-1-(4-isopropyl-phenyl)-1-(4-trifluormethyl-benzyl)-urea], the IC50 was 200 to 5000 nM.
With `CCc1c(N)cc(Cl)c(CC)c1NC(=O)N(Cc1ccccc1OC)c1ccc(C(C)C)cc1` [compound 62, 3-(3-amino-5-chloro-2,6-diethyl-phenyl)-1-(4-isopropyl-phenyl)-1-(2-methoxy-benzyl)-urea], the half-maximal inhibitory concentration (IC50) fell in the range of 200 to 5000 nM.
The same measure, in the same setting: with `CCc1c(N)cc(Cl)c(CC)c1NC(=O)N(c1ccc(Cl)cc1)[C@@H](C)c1ccc(Cl)cc1` [compound 86, (S)-3-(3-amino-5-chloro-2,6-diethyl-phenyl)-1-(4-chlor-phenyl)-1-[1-(4-chloro-phenyl)-ethyl]-urea] the figure was 200 to 5000 nM; with `CCc1ccc(N)c(CC)c1NC(=O)N(c1ccc(C(C)C)cc1)C1CCc2ccccc21` (stereo not shown) [compound 90, 3-(3-amino-2,6-diethyl-phenyl)-1-indane-1-yl-1-(4-isopropyl-phenyl)-urea], 200 to 5000 nM.
Still for that read-out and setting: under `Cc1ccc(CN(Cc2ccccc2)C(=O)c2ccccc2-n2cccc2)cc1` [Compound 8, N-Benzyl-N-(4-methyl-benzyl)-2-pyrrol-1-yl-benzamide, reference compound] stands 200 to 5000 nM; under `CCc1c(N)cc(Cl)c(CC)c1NC(=O)N(c1ccc(C(C)C)cc1)C1CCSc2ccccc21` (stereo not shown) [compound 101, 3-(3-amino-5-chloro-2,6-diethyl-phenyl)-1-(4-isopropyl-phenyl)-1-thiochroman-4-yl-urea], 200 to 5000 nM; under `CCc1c(N)cc(Cl)c(CC)c1NC(=O)N(c1ccc(C(C)C)cc1)[C@@H]1CCCc2ccccc21` [compound 41, (R)-3-(3-amino-5-chloro-2,6-diethyl-phenyl)-1-(4-isopropyl-phenyl)-1-(1,2,3,4-tetrahydro-naphthaline-1-yl)-urea], 200 to 5000 nM.
The same measure, in the same setting: with `CCc1ccc(N(Cc2cnc(N(C)C)nc2)C(=O)Nc2c(CC)c(N)cc(Cl)c2CC)cc1` [compound 121, 3-(3-amino-5-chloro-2,6-diethyl-phenyl)-1-(2-dimethylamino-pyrimidin-e5-ylmethyl)-1-(4-ethyl-phenyl)-urea] the figure was 200 to 5000 nM.
As to `CCc1ccc(N)c(CC)c1NC(=O)N(Cc1ccc(Cl)cc1)c1ccc(NC)cc1` [compound 119, 3-(3-amino-2,6-diethyl-phenyl)-1-(4-chloro-benzyl)-1-(4-methylamino-phenyl)-urea], the IC50 lay in the range of 60 to 200 nM.
On the same count and under the same terms, under `COc1ccc(CN(C(=O)Nc2c(C)ccc3c2CCCN3)c2ccc(C(C)C)cc2)cc1` [compound 40, 1-(4-isopropyl-phenyl)-1-(4-methoxy-benzyl)-3-(6-methyl-1,2,3,4-tetrahydro-chinolin-5-yl)-urea] stands above 5000 nM.
The same measure, in the same setting: with `CCc1ccc(N(Cc2ccc(F)cc2)C(=O)Nc2c(CC)c(N)cc(Cl)c2CC)cc1` [compound 96, 3-(3-amino-5-chloro-2,6-diethyl-phenyl)-1-(4-ethyl-phenyl)-1-(4-fluoro-benzyl)-urea] the figure was 60 to 200 nM; with `CCc1c(N)cc(Cl)c(CC)c1NC(=O)N(Cc1ccc(Cl)cc1)c1ccc(N(C)C)cc1` [compound 127, 3-(3-amino-5-chloro-2,6-diethyl-phenyl)-1-(4-chloro-benzyl)-1-(4-dimethylamino-phenyl)-urea], 200 to 5000 nM.

For orientation: IC50 means the concentration needed to halve the response being measured.
